Measurements as given in ChEMBL document CHEMBL1131791 (Bioorg Med Chem Lett, 1999).

Experiments:
D(4) dopamine receptor = target: T1, D(4) dopamine receptor (Homo sapiens, UniProt P21917); assay: Binding affinity of compound towards human cloned Dopamine receptor D4.4 expressed in CHO cells using [3H]spiperone as radioligand; type: cell-based
T1 sequence (P21917 whole entry): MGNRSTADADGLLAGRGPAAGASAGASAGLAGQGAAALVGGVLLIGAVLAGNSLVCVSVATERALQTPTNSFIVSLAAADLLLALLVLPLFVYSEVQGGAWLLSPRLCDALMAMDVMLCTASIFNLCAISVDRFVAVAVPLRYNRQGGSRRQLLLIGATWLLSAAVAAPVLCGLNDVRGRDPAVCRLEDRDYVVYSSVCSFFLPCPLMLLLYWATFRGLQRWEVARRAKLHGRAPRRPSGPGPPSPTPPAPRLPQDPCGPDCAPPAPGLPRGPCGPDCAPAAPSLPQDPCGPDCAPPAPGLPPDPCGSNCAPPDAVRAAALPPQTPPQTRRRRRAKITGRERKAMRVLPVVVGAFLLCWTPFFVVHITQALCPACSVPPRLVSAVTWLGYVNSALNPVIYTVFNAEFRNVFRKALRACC

D(2) dopamine receptor [1] = target: T2, D(2) dopamine receptor (Homo sapiens, UniProt P14416); assay: Ability to displace [3H]spiperone from the cloned human Dopamine receptor D2L stably expressed in Chinese hamster ovary (CHO) cells was determined.; type: cell-based
T2 sequence (P14416 whole entry): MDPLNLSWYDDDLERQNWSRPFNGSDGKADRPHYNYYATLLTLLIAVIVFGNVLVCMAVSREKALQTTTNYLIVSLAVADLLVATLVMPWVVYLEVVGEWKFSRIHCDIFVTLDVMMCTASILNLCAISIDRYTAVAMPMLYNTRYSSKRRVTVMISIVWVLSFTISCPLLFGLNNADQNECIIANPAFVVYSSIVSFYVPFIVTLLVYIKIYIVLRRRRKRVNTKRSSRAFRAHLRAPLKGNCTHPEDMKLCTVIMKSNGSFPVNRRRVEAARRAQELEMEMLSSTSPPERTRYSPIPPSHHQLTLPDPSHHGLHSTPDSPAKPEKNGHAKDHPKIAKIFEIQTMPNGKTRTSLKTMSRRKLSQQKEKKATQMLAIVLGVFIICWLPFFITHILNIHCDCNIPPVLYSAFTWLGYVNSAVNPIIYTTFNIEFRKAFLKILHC

D(3) dopamine receptor = D(3) dopamine receptor (Homo sapiens, UniProt P35462); assay: Ability to displace [3H]spiperone from the cloned human D3 dopamine receptor stably expressed in Chinese hamster ovary (CHO) cells was determined.; type: cell-based
Chain of D(3) dopamine receptor (P35462 whole entry): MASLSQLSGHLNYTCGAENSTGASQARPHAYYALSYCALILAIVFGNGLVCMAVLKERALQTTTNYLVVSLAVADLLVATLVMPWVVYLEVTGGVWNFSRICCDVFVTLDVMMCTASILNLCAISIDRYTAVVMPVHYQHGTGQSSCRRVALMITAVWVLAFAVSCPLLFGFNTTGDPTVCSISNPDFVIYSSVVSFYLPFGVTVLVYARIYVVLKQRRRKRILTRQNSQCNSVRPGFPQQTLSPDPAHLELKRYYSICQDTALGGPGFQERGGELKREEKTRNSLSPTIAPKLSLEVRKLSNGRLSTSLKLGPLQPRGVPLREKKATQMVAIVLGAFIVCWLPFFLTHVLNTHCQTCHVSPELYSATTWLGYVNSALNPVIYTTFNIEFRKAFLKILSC

D(1A) dopamine receptor = D(1A) dopamine receptor (Bos taurus, UniProt Q95136); assay: Ability to displace D1 selective radioligand [3H]-SCH- 23390 in bovine striatal membrane preparations was determined; type: cell membranes, Striatum
Chain of D(1A) dopamine receptor (Q95136 whole entry): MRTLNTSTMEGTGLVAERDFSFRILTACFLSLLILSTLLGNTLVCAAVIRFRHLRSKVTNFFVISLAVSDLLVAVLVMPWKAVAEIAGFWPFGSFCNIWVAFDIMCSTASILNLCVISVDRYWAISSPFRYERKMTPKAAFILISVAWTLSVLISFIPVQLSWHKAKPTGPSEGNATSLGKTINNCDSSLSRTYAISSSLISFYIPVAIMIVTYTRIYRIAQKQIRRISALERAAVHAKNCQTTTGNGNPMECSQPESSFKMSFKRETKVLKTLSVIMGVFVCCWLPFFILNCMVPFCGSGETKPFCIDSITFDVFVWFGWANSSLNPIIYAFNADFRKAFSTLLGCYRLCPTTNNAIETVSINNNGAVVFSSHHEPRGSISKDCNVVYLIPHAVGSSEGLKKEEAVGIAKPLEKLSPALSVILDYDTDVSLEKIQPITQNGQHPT

D(2) dopamine receptor [2] = target: T2, D(2) dopamine receptor; assay: Ability to displace [3H]spiperone from the cloned human Dopamine receptor D2S stably expressed in Chinese hamster ovary (CHO) cells was determined.; type: cell-based

Ki (D(4) dopamine receptor) [µM]	Ki (D(2) dopamine receptor [1]) [µM]	Ki (D(3) dopamine receptor) [µM]	Ki (D(1A) dopamine receptor) [µM]	Ki (D(2) dopamine receptor [2]) [µM]	Structure (SMILES)
0.16	4	6.95	22	12.8	N#CC(C#N)=Cc1[nH]ccc1CN1CCN(c2ccccc2)CC1
0.0057	7.35	6.95	5.3	10.3	N#CC(C#N)=Cc1cc(CN2CCN(c3ccc(Cl)cc3)CC2)c[nH]1
0.0039	1.85	2.35	7.2	0.975	N#CC(C#N)=Cc1cc(CN2CCN(c3ccccc3)CC2)c[nH]1
0.125	8.95	7.6	13.5	15	N#CC(C#N)=Cc1[nH]ccc1CN1CCN(c2ccc(Cl)cc2)CC1
0.0093	> 100	5.25	58	> 100	N#CC(C#N)=Cc1ccc(CN2CCN(c3ccccc3)CC2)[nH]1

Structure (SMILES)	Ki (D(4) dopamine receptor) [µM]	Ki (D(2) dopamine receptor [1]) [µM]	Ki (D(3) dopamine receptor) [µM]	Ki (D(1A) dopamine receptor) [µM]	Ki (D(2) dopamine receptor [2]) [µM]
N#CC(C#N)=Cc1ccc(CN2CCN(c3ccc(Cl)cc3)CC2)[nH]1	0.011	48.5	31	39.5	59
